In patent US4678788A, “N-substituted 2-chloro-7-fluoro-10-piperazino-10,11-dihydrodibenzo (B,F) thiepins and acid addition salts thereof” (SPOFA, Spojene Podniky Pro Zdravotnickou Vyrobu, priority 1985, dated 1987):

Assays:
[1] = system: dopamine levels in corpus striatum; assay: Dopamine level in corpus striatum of the rat brain; format: in vivo; conditions: for dopamine level, striatum: 20 mg/kg, in words
[2] = Rota-rod test in rats (motor coordination); conditions: rat, po
[3] = Acute toxicity in rats (oral); conditions: rat, in vivo
[4] = molecular target: T1, dopamine receptors in corpus striatum (Rattus norvegicus, UniProt P61169); assay: Inhibition of 3H-spiperone binding, corpus striatum
T1 construct: dopamine receptors in the two brain structures; from tissue; host or cells: rat brain, corpus striatum

[5] = system: apomorphine-induced climbing behavior of mice; assay: Apomorphine-induced climbing behavior of mice; format: in vivo
mice = conditions: mouse, in vivo, po
Solubility in water = format: physicochemical
[6] = system: apomorphine-elicited agitation and stereotypes in rats; assay: Antiapomorphine action in rats; format: in vivo; conditions: for effect on apomorphine-elicited agitation / effect on apomorphine-elicited stereotypes: 20 and 50 mg/kg, by 2 h after administration; for antiapomorphine effect: 50 mg/kg, oral
in vivo = conditions: mouse, po
[7] = system: dopamine levels in tuberculum olfactorium; assay: Dopamine level in tuberculum olfactorium of the rat brain; format: in vivo; conditions: 20 mg/kg, in words
rats = assay: Cataleptic activity in rats; conditions: for cataleptic activity: rats, 50 mg/kg, oral
[8] = system: apomorphine emesis in dogs; assay: Inhibition of apomorphine emesis in dogs; format: in vivo
[9] = system: homovanillic acid in tuberculum olfactorium; assay: Homovanillic acid level in tuberculum olfactorium of the rat brain; format: in vivo; conditions: 3 h after the administration
[10] = Rota-rod test in mice (motor coordination); conditions: mouse, po
[11] = system: homovanillic acid in corpus striatum; assay: Homovanillic acid level in corpus striatum of the rat brain; format: in vivo
[12] = system: spontaneous locomotor activity in mice; assay: Inhibition of spontaneous locomotor activity in mice; format: in vivo; conditions: for times less active than compound A, inhibition of spontaneous locomotor activity: mice, relative to compound A
[13] = system: cataleptogenic effect of perphenazine in rats; assay: Potentiation of the cataleptogenic effect of perphenazine in rats; format: in vivo; conditions: 50 mg/kg, oral
Protocol: A further compound of the invention is 1-(2-chloro-7-fluoro-10, 11-dihydrodibenzo (b,f) thiepin-10-yl)-4-(2-(1,3-dioxolan-2-yl)ethyl)piperazine, which also was tested as the methanesulfonate (compound B). This compound and the following ones were likewise administered orally, and the data is calculated per bases.
(§1) The invention further includes 1-(2-chloro-7-fluoro-10, 11-dihydrodibenzo (b,f) thiepin-10-yl)-4-(2-(1,3-dioxan-2-yl) ethyl)piperazine, which is also tested as the methanesulfonate (compound C).

[14] = Overall antidopaminergic / neuroleptic activity and pharmacological profile; conditions: in words
[15] = Acute toxicity in mice, intravenous administration; conditions: mouse, in vivo
Protocol: as §1

motility of mice = conditions: Mus musculus, po, read-out: medium effective dose, motility of mice

T1 sequence (P61169 whole entry): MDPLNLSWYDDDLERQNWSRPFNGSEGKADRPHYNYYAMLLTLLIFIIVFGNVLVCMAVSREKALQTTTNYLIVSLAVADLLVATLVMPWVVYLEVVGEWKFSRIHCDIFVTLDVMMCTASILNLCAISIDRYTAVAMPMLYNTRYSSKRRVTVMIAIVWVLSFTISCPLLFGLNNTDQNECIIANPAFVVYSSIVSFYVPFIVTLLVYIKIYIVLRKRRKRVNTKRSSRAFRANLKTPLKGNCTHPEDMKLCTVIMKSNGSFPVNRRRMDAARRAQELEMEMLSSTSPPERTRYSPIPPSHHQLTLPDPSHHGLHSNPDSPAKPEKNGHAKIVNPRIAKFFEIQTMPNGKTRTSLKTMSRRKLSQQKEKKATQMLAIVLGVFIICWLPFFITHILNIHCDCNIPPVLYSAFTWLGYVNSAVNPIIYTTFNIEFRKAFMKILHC

For `NC(=O)CCN1CCN(C2Cc3cc(Cl)ccc3Sc3cc(F)ccc32)CC1` (stereo not shown) [Compound A], the “dopamine level, striatum” value [1] was “does not significantly affect the dopamine levels”, the TD50 [2] was 19.5 mg/kg and the LD50 [3] was 654 mg/kg. The IC50 [4] was 0.0497 µM, the ED50 ([5]; Mus musculus, po, read-out: medium effective dose PD50, apomorphine-induced climbing behavior) was 2.9 mg/kg and the “LD50 on longer evaluation of the toxicity test” value (mice) was “lower LD50 values”. The solubility in water (Solubility in water; monomethanesulfonate) was “excellently water-soluble”, the solubility in water (Solubility in water; neutral maleate) was “poorly soluble in water” and the “effect on apomorphine-elicited agitation” value [6] was “significantly inhibits the agitation”. The “effect on apomorphine-elicited stereotypes” value [6] was “does not affect the apomorphine-elicited stereotypes”, the LD50 at 48 h (in vivo; LD50, female mice, per base) was 316 mg/kg and the LD50 at 48 h (in vivo; LD50, male mice, per base) was 336 mg/kg. The “dopamine level, tuberculum olfactorium” value [7] was “does not significantly affect the dopamine levels”, the “cataleptic activity (general statement)” value (rats; compounds of the invention, in words) was “noncataleptic” and the cataleptic activity (rats) was “lacks cataleptic activity”. For the same compound, the minimal effective dose ([8]; Canis lupus familiaris, oral, by 4 h after the administration, read-out: threshold activity dose, inhibition of apomorphine emesis) was 2 mg/kg, the “inhibition of apomorphine emesis, duration” value ([8]; within 24 h) was “within 24 h the effect disappears” and the “level of homovanillic acid, tuberculum olfactorium” value [9] was “intensively increases”. It also gave a minimal effective dose ([9]; oral, read-out: threshold dose significantly increasing homovanillic acid concentration, tuberculum olfactorium) of 2 mg/kg, a TD50 [10] of 2 mg/kg and a minimal effective dose ([11]; Rattus norvegicus, po, 3 h, read-out: threshold dose significantly increasing homovanillic acid concentration, corpus striatum) of 5 mg/kg. The “level of homovanillic acid, corpus striatum” value ([11]; rat, 3 h after the administration) was “intensively increases” and the ED50 ([12]; Mus musculus, po, read-out: medium active dose D50, inhibition of spontaneous locomotor activity) was 1.05 mg/kg.

In the case of `Fc1ccc2c(c1)Sc1ccc(Cl)cc1CC2N1CCN(CCC2OCCO2)CC1` (stereo not shown) [Compound B, 1-(2-chloro-7-fluoro-10, 11-dihydrodibenzo (b,f)thiepin-10-yl)-4-(2-(1,3-dioxolan-2-yl)ethyl)piperazine], the “lowering of dopamine level in striatum” value ([1]; 80 mg/kg, 3 h) is reported as 25%, the “potentiation of the cataleptogenic effect of perphenazine” value [13] is reported as “only mildly potentiates the cataleptogenic effect of perphenazine” and the “pharmacological profile compared with compound A” value [14] is reported as “approximately comparable”. For the same compound, the solubility in water (Solubility in water; monomethanesulfonate) was “readily water-soluble”, the solubility in water (Solubility in water; monomethanesulfonate, listed as Example 3) was “excellently water-soluble” and the solubility in water (Solubility in water; neutral maleate) was “slightly soluble in water”. The solubility (Solubility in water; water, monomethanesulfonate, aqueous solution, read-out: concentration of aqueous solutions provided) was greater than 100 mg/mL, the antiapomorphine effect [6] was “only a slight indication of antiapomorphine effect” and the LD50 (in vivo; LD50, mice, per base) was 350 mg/kg. The cataleptic activity (rats) was “no cataleptic effect”, the TD50 [10] was 3.5 mg/kg and the “increase of homovanillic acid level in striatum” value (“increase” below) ([11]; rat, 80 mg/kg, 3 h, oral) was 504%.

In the case of `Fc1ccc2c(c1)Sc1ccc(Cl)cc1CC2N1CCN(CCC2OCCCO2)CC1` (stereo not shown) [Compound C, 1-(2-chloro-7-fluoro-10, 11-dihydrodibenzo (b,f)thiepin-10-yl)-4-(2-(1,3-dioxan-2-yl)ethyl)piperazine], the “dopamine level, striatum” value [1] is reported as “the dopamine level is not affected”, the “potentiation of the cataleptogenic effect of perphenazine” value [13] is reported as “only mildly potentiates the cataleptogenic effect of perphenazine” and the “affinity to dopamine receptors in striatum, release of 3H spiperone” value ([4]; striatum, in words, compared with clozapine) is reported as “approximately the same as with clozapine”. The “pharmacological profile compared with compound A” value [14] was “approximately comparable”, the solubility in water (Solubility in water; monomethanesulfonate) was “excellently water-soluble” and the solubility in water (Solubility in water; neutral maleate) was “poorly soluble in water”. The solubility in water (Solubility in water; neutral maleate, listed as Example 4) was “only very slightly soluble in water”, the antiapomorphine effect [6] was “does not reveal any antiapomorphine effect” and the LD50 (in vivo; LD50, mice, per base) was greater than 500 mg/kg. The cataleptic activity (rats) was “no cataleptic effect”, the TD50 [10] was 2.86 mg/kg and the “increase” value ([11]; rat, 20 mg/kg, 3 h) was 400%. For the same compound, the LD50 [15] was 77.6 mg/kg.

In the case of `NC(CCN1CCN(C2Cc3cc(Cl)ccc3Sc3cc(F)ccc32)CC1)=NO` (stereo not shown) [Compound D], the “pharmacological profile compared with compound A” value [14] is reported as “approximately comparable”, the LD50 (in vivo) is reported as 320 mg/kg and the “increase” value ([11]; rat, 80 mg/kg, 3 h, oral) is reported as “more than 300%”. For the same compound, the ED50 (motility of mice) was 50 mg/kg.

For `CN(C)CCCN1c2ccccc2Sc2ccc(Cl)cc21` [chlorpromazine, reference compound], the “activity relative to compound A, climbing behavior” value ([5]; mice, % of activity of compound A) was “approx. 50%” and the “times less active than compound A, inhibition of spontaneous locomotor activity” value [12] was 5 times.

In the case of `CN1CCN(C2=Nc3cc(Cl)ccc3Nc3ccccc32)CC1` [clozapine, 8-chloro-11-(4-methylpiperazine)-5H-dibenzo (b,e)-(1,4)diazepine, reference compound], the “dopamine level, striatum” value [1] is reported as “slightly decreases dopamine levels”, the “effect on apomorphine-elicited agitation” value [6] is reported as “effects neither agitation nor stereotypes” and the “effect on apomorphine-elicited stereotypes” value [6] is reported as “effects neither agitation nor stereotypes”. The “dopamine level, tuberculum olfactorium” value [7] was “slightly decreases dopamine levels”, the cataleptic activity (rats) was “behaves similarly” and the “increase” value ([11]; rat, 20 mg/kg, 3 h) was 200%. The “times less active than compound A, inhibition of spontaneous locomotor activity” value [12] was “approx. 4 times”.
